Converted amounts (≈) assume the structure as drawn.
Key:
Blood = assay: Inhibition of LPS-induced MCP1 production in human whole blood preincubated for 30 mins followed by LPS addition measured after 24 hrs by immuno assay; format: functional, tissue-based
[1] = Renal clearance in Wistar Han rat at 1 mg/kg administered as iv infusion for 1 hr and measured up to 7 hrs by LC-MS/MS analysis; format: ADME, organism-based; conditions: in vivo
[2] = Clearance in Wistar Han rat at 1 mg/kg administered as iv infusion for 1 hr and measured up to 7 hrs by LC-MS/MS analysis; format: ADME, organism-based; conditions: in vivo
[3] = Chromatographic hydrophobicity index, log D of the compound in pH 7.4 ammonium acetate buffer/acetonitrile gradient by HPLC analysis; format: physicochemical
[4] = Oral bioavailability in Wistar Han rat at 3 mg/kg administered via gavage and measured up to 7 hrs by LC-MS/MS analysis; format: ADME, organism-based; conditions: in vivo
[5] = Half life in Wistar Han rat at 1 mg/kg administered as iv infusion for 1 hr and measured up to 7 hrs by LC-MS/MS analysis; format: ADME, organism-based; conditions: in vivo
[6] = Volume of distribution at steady state in Wistar Han rat at 1 mg/kg administered as iv infusion for 1 hr and measured up to 7 hrs by LC-MS/MS analysis; format: ADME, organism-based; conditions: in vivo, read-out: Vdss
[7] = Clearance in Wistar Han rat hepatocytes assessed as per gram tissue at 0.5 uM by LC-MS/MS analysis; format: ADME, cell-based, Hepatocyte
[8] = Permeability of compound by artificial membrane assay; format: ADME; conditions: PAMPA; read-out: permeability
[9] = test system: Bromodomain-containing protein 4 (Homo sapiens), O60885 [UNDEFINED MUTATION]; assay: Selectivity index, ratio of IC50 for displacement of Alexa Fluor 647 labelled ligand from His6-tagged BRD4 BD1 (1 to 477 residues)/BD2 Y390A mutant (unknown origin) to IC50 for displacement of Alexa Fluor 647 labelled ligand from His6-tagged BRD4 BD2 (1 to 477 residues)/BD1 Y97A mutant (unknown origin)
[10] = molecular target: Bromodomain-containing protein 4 (Homo sapiens, UniProt O60885, Y97A); assay: Displacement of Alexa Fluor 647 labelled ligand from His6-tagged BRD4 BD2 (1 to 477 residues)/BD1 Y97A mutant (unknown origin) after 30 mins by TR-FRET assay
[11] = molecular target: Bromodomain-containing protein 4 (Homo sapiens, UniProt O60885, Y390A); assay: Displacement of Alexa Fluor 647 labelled ligand from His6-tagged BRD4 BD1 (1 to 477 residues)/BD2 Y390A mutant (unknown origin) after 30 mins by TR-FRET assay
[12] = Solubility of compound by CLND method; format: physicochemical
serum albumin = serum albumin (Homo sapiens, UniProt P02768); assay: Binding affinity to human serum albumin; format: ADME; conditions: read-out: PB (converted)
Sequence of serum albumin (P02768 whole entry): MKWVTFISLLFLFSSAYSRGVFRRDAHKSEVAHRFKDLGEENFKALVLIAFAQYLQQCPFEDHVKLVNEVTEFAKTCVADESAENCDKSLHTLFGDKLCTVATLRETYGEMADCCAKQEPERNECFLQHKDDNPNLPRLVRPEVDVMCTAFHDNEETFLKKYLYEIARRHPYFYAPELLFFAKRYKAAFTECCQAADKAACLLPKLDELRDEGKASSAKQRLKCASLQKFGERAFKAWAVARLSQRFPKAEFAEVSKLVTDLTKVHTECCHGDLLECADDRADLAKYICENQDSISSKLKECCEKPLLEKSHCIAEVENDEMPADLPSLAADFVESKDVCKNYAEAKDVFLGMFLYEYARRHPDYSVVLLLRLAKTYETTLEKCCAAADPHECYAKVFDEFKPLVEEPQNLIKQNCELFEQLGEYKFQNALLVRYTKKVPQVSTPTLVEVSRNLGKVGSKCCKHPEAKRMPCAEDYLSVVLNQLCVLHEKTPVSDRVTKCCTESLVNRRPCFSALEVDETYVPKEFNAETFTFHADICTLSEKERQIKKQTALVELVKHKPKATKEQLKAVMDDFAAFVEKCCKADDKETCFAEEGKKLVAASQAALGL

[13] = Clearance in human pooled hepatocytes assessed as per gram tissue at 0.5 uM by LC-MS/MS analysis; format: ADME, cell-based, Hepatocyte
[14] = Clearance in Wistar Han rat hepatocytes assessed as per gram tissue at 0.5 uM measured up to 1 hr by LC-MS/MS analysis; format: ADME, cell-based, Hepatocyte
[15] = Clearance in Beagle dog hepatocytes assessed as per gram tissue at 0.5 uM measured up to 1 hr by LC-MS/MS analysis; format: ADME, cell-based, Canis lupus familiaris, Hepatocyte
PBMC = assay: Inhibition of LPS-induced MCP1 production in human PBMC; format: functional, cell-based
[16] = Clearance in human pooled hepatocytes assessed as per gram tissue at 0.5 uM measured up to 2 hrs by LC-MS/MS analysis; format: ADME, cell-based, Hepatocyte
[17] = Clearance in Beagle dog hepatocytes assessed as per gram tissue at 0.5 uM measured up to 2 hrs by LC-MS/MS analysis; format: ADME, cell-based, Canis lupus familiaris, Hepatocyte

CNC(=O)c1cc(C(=O)NCCC[C@H]2OC[C@H](N)CO2)cc2c1O[C@H](CF)[C@H]2c1ccccc1
IC50 (Blood): 126 nM
CL renal [1]: 10 mL/min/kg
clearance [2]: 73 mL/min/kg
CHI [3]: 2.94
bioavailability [4]: 3%
half-life [5]: 36 min
Vd [6]: 2.1 L/kg
CLH [7]: 1.39 mL/min/g
Papp [8]: 4.5 ×10⁻⁶ cm/s

CNC(=O)c1cc(C(N)=O)cc2c1O[C@H](C)[C@H]2c1ccccc1
Ratio IC50 [9]: 160
IC50 [10]: 100 nM
IC50 [11]: 15800 nM
CHI [3]: 3.28

CNC(=O)c1cc(C(=O)NC2CC2)cc2c1O[C@H](CO)[C@H]2c1ccccc1
solubility kinetic [12]: > 177 µg/mL
IC50 (Blood): 794 nM
fraction unbound (serum albumin): 0.21
CL renal [1]: 23 mL/min/kg
clearance [2]: 74 mL/min/kg
CHI [3]: 2.53
bioavailability [4]: 2%
CLH [13]: < 0.45 mL/min/g
half-life [5]: 24 min
Vd [6]: 1.4 L/kg
CLH [7]: < 0.8 mL/min/g
Papp [8]: 26.6 ×10⁻⁶ cm/s

CNC(=O)c1cc(C(=O)NCCO)cc2c1O[C@H](C)[C@H]2c1ccccc1
Ratio IC50 [9]: > 320
IC50 [10]: 158 nM
IC50 [11]: > 50100 nM
CHI [3]: 3.12

CNC(=O)c1cc(C(=O)NCCOC)cc2c1O[C@H](C)[C@H]2c1ccccc1
Ratio IC50 [9]: 200
IC50 [10]: 200 nM
IC50 [11]: 39800 nM
CHI [3]: 3.81

CNC(=O)c1cc(C(=O)NC2CC2)cn(Cc2ccccc2)c1=O [GSK620]
CHI [3]: 3.07

CNC(=O)c1cc(C(=O)N[C@H]2C[C@@H]2C)cc2c1O[C@H](CF)[C@H]2c1ccccc1
IC50 (Blood): 100 nM
CHI [3]: 4.53

CNC(=O)c1cc(C(=O)N[C@H]2C[C@H](O)C2)cc2c1O[C@H](CF)[C@H]2c1ccccc1
Ratio IC50 [9]: 400
IC50 (Blood): 316 nM
IC50 [10]: 79.4 nM
IC50 [11]: 31600 nM
CHI [3]: 2.92
CLH [13]: < 0.45 mL/min/g
CLH [7]: 1.84 mL/min/g

CNC(=O)c1cccc2c1O[C@@H](C)[C@H]2c1ccccc1
Ratio IC50 [9]: 10
IC50 [10]: 2510 nM

CNC(=O)c1cc(C(=O)NC2CC2)cc2c1O[C@H](CF)[C@H]2c1ccccc1
CLH [14]: 3.2 mL/min/g
IC50 (Blood): 200 nM
CLH [15]: < 1.26 mL/min/g
CHI [3]: 3.94
CLH [13]: < 0.45 mL/min/g

CNC(=O)c1cc(C(=O)NC)c(=O)n(Cc2ccccc2)c1
CHI [3]: 2.38

CNC(=O)c1cc(C(=O)NC2CC2)cc2c1O[C@H](C)[C@H]2c1ccccc1
IC50 (PBMC): 6.31 nM
Ratio IC50 [9]: 1600
solubility kinetic [12]: 137 µg/mL (≈ 391 µM)
IC50 (Blood): 200 nM
fraction unbound (serum albumin): 0.11
CL renal [1]: 0.2 mL/min/kg
clearance [2]: 90 mL/min/kg
CHI [3]: 4.24
CLH [13]: 1.42 mL/min/g
half-life [5]: 24 min
Vd [6]: 2.3 L/kg
CLH [7]: 2.48 mL/min/g
Papp [8]: 44 ×10⁻⁶ cm/s

CNC(=O)c1cc(C(=O)NCC[C@@H]2CNCCO2)cc2c1O[C@H](CF)[C@H]2c1ccccc1
CLH [16]: < 0.45 mL/min/g
Ratio IC50 [9]: 1200
IC50 (Blood): 158 nM
IC50 [10]: 39.8 nM
IC50 [11]: 50100 nM
CHI [3]: 2.18
CLH [17]: < 0.65 mL/min/g
CLH [7]: 1.28 mL/min/g

CNC(=O)c1cc(C(=O)NC)c2c(c1)[C@H](c1ccccc1)[C@@H](CF)O2
CLH [14]: 3.02 mL/min/g
IC50 (Blood): 200 nM
CHI [3]: 3.34
CLH [13]: < 0.45 mL/min/g

CNC(=O)c1cc(C(N)=O)cn(Cc2ccccc2)c1=O
CHI [3]: 2.03

CNC(=O)c1cc(C(N)=O)cc2c1O[C@H](CF)[C@H]2c1ccccc1
CHI [3]: 2.89

CNC(=O)c1cccc2c1O[C@@H](c1ccccc1)[C@@H]2C
Ratio IC50 [9]: 5
IC50 [10]: 10000 nM

CNC(=O)c1cc(C(=O)NC)c2c(c1)[C@H](c1ccccc1)[C@@H](C)O2
Ratio IC50 [9]: 400
IC50 [10]: 31.6 nM
IC50 [11]: 12600 nM
CHI [3]: 3.55

CCNC(=O)c1cc(C(=O)NC)c2c(c1)[C@H](c1ccccc1)[C@@H](C)O2
Ratio IC50 [9]: 1000
IC50 [10]: 39.8 nM
IC50 [11]: 39800 nM
CHI [3]: 4.11

CNC(=O)c1cc(C(=O)NCCO)cn(Cc2ccccc2)c1=O
CHI [3]: 1.9

CNC(=O)c1cc(C(=O)NC2CCOC2)cc2c1O[C@H](CF)[C@H]2c1ccccc1 (stereo partly specified)
Ratio IC50 [9]: > 300
IC50 [10]: 158 nM
IC50 [11]: > 50100 nM
CHI [3]: 3.51

CNC(=O)c1cc(C(=O)NCCOC)cn(Cc2ccccc2)c1=O
CHI [3]: 2.74

CNC(=O)c1cc(C(=O)N[C@@H]2C[C@H]2CO)cc2c1O[C@H](CF)[C@H]2c1ccccc1
CLH [16]: < 0.45 mL/min/g
Ratio IC50 [9]: 800
solubility kinetic [12]: 114 µg/mL (≈ 286 µM)
IC50 (Blood): 200 nM
CL renal [1]: 4 mL/min/kg
IC50 [11]: 15800 nM
clearance [2]: 98 mL/min/kg
CHI [3]: 3
bioavailability [4]: 15%
half-life [5]: 30 min
Vd [6]: 1.7 L/kg
CLH [17]: < 0.65 mL/min/g
CLH [7]: 1.65 mL/min/g
Papp [8]: 7.3 ×10⁻⁶ cm/s

CCNC(=O)c1cc(C(=O)NC)c(=O)n(Cc2ccccc2)c1
CHI [3]: 2.99

CNC(=O)c1cccc2c1O[C@H](C)[C@H]2c1ccccc1 (single isomer, unassigned)
Ratio IC50 [9]: 25
IC50 [10]: 794 nM
